From patent US12318365B2, “Inhibition of dipeptide repeat proteins” (ALS Therapy Development Institute, priority 2019, dated 2025) come the findings set out here.

“Also recorded” adds a separate entry of the source. Where two headings read alike, the source gives them in different places. No end group written: not given here.

In this data set the test system is NSC-34 cells. Nature of the data set: LDH assay (cytotoxicity) in NSC-34 cells. The conditions noted are these: for DRP-induced toxicity: incubated 24 hours; for toxicity: DRP concentrations as low as 300 nM. It counts as cell-based.
Text: LDH Assay: The LDH assay is a colorimetric assay that measures cell toxicity and death. […] When cells lose membrane integrity, an enzyme found in living cells called lactate dehydrogenase (LDH) is released into the solution surrounding the dying cell. A form of programmed cell death, apoptosis, as well as other forms of cell death also ultimately lead to a cell's membrane being destroyed, resulting in a large release of LDH into the extracellular space. Thus, LDH is an excellent marker not only for necrosis, but for all instances of cell death. In an LDH assay, a sample of the solution surrounding the cell is isolated, and transferred to a plate containing an LDH reaction mixture. This reaction mixture contains a tetrazolium salt intermediate and other reaction constituents that, when exposed to LDH, convert the tetrazolium salt into a colored Formazan product. This Formazan product can be quantified spectrophotometrically. Greater absorbance readings correspond to more cell death.
One row on the top and bottom of the plate, and two columns on either side of the plate, were left without cells and contained culture medium only to minimize experimental well volume evaporation. After plating, cells were incubated for 24 h at 37° C., 5% CO2 prior to DRP and/or PRMT inhibitor addition. At time of DRP/PRMT inhibitor addition, desired doses of DRP for challenge and inhibitor for treatment were achieved by diluting aliquots of each stock in warm culture medium. During experiments where both PRMT inhibitors and DRPs were used, PRMT inhibitors were always applied to wells first, and followed by DRP application. […] Inhibitor toxicity controls were included as wells treated with the desired doses of drug for the experiment, but no DRP. DRP toxicity controls were included as wells only treated with the doses of DRP used for challenge. Once dosed, plates were incubated for 24 h at 37° C., 5% CO2 prior to running the WST-1 or LDH assay endpoints. Additional controls needed for each endpoint are specified in the “WST-1 Assay” and “LDH Assay” sections of these methods.
LDH Assay: Cells were plated and prepared using the steps described in the “Plating NSC-34 and Dosing with DRPs and PRMT Inhibitors” section of these methods. Other controls for this experiment included several sets of wells with only cells in culture medium (one triplicate designated for “untreated,” one triplicate designated for “lysed” positive control), and wells with culture medium only. An additional control added only to the transfer plate at time of testing was 5 μL LDH only. Testing was performed using colorimetric LDH-Cytotoxicity Assay Kit II (Abcam, Cambridge, MA, USA) per manufacturer's instructions. Final read at 450 nm was performed on a SpectraMax M3 Microplate Reader (Molecular Devices, San Jose, CA, USA). Data analysis included calculation of % LDH release using the following equation: […]
Experiments included three replicates per condition. Each experiment was repeated twice (executed three times total).
(§1) The following conditions were plated in triplicate.
Plates were incubated for 24 h at 37° C., 5% CO2. Cells were tested and data were analyzed by LDH assay.
Cells were plated in culture medium in 2 96-well plates at a density of 3.7×10^4 cells per well, and incubated overnight at 37° C., 5% CO2.
as §1
Cells were plated in culture medium in 2 96-well plates at a density of 3.7×10^4 cells per well, and incubated overnight at 37° C., 5% CO2. […]
The following conditions were plated in triplicate. […]

PRPRPRPRPRPRPRPRPRPRPRPRPRPRPR [PR15]: for the setting “24 h”, the EC50 amounted to 56 ± 20 nM and the toxicity result is on record as “approximately 10%”. The DRP-induced toxicity entry (DRP 0.01-3 μM) is “produced significant, dose-dependent toxicity”.

For GRGRGRGRGRGRGRGRGRGRGRGRGRGRGR [GR15], the “cytotoxicity induced by DRP challenge” value (DRP 10 nM-3 μM, 24 h) is recorded as “induced dose-dependent cytotoxicity”. Also, the EC50 (DRP 0.01-3 μM, 24 h, read-out: EC50 of DRP-induced toxicity) is 50 ± 26 nM. The DRP-induced toxicity result (DRP 0.01-3 μM) is listed as “produced significant, dose-dependent toxicity”. Besides, the toxicity result (24 h) is recorded as “approximately 10%”.

In the case of `CC(C)Oc1ccc(-c2c[nH]cc2CN(C)CCN)cc1` [MS023], the “effect on GR15-induced cytotoxicity” value (300 nM GR15, 24 h, MS023 60 and 30 μM) is “significantly amplified cytotoxicity”. Further, the “abrogation of PR-induced cytotoxicity” value is, setting by setting: (300 nM PR15, 24 h, all doses applied (1-60 μM)) “at least partially abrogated”; (3 μM PR15, 24 h, doses 1 and 3 μM) “fully abrogated; also recorded: completely abrogated”; (3 μM PR15, 24 h, doses 10, 30 and 60 μM) “partially abrogated”. For the same compound, the “abrogation of ADMe-GR15-induced cytotoxicity” value (3 μM ADMe-GR15, 24 h, MS023 0.1-10 μM) is on record as “did not abrogate”. Moreover, the “abrogation of GR-induced toxicity” value by setting is: (3 μM GR15, 24 h, all tested doses (1-60 μM)) “partially abrogated”; (3 μM GR15, 24 h, doses 0.01, 0.03, 0.1 and 0.3 μM) “partially abrogated”; (3 μM GR15, 24 h, doses 0.3, 1 and 3 μM) “completely abrogated”. Further, the “dose dependence of abrogation of GR15-induced cytotoxicity” value (3 μM GR15, 24 h, dose range of the example) is “potently, and dose-dependently abrogated; also recorded: consistently dose-dependently abrogated”. In addition, the “abrogation of GR15-induced cytotoxicity” value (3 μM GR15, 24 h, doses 1 and 3 μM) is on record as “completely abrogated”. Moreover, the “relative potency against GR- vs PR-induced toxicity” value (3 μM GR15 or PR15, 24 h, MS023 0.01-3 μM) is listed as “more potently abrogated PR-induced toxicity”. In addition, where the note is “3 μM PR15, 24 h, dose range of the example”, the “dose dependence of abrogation of PR15-induced cytotoxicity” value was “potently, and dose-dependently abrogated”. Also, the “abrogation of PR-induced toxicity” value is recorded as “partially abrogated” (3 μM PR15, 24 h, doses 0.01, 0.03 and 0.1 μM); “completely abrogated” (3 μM PR15, 24 h, doses 0.03, 0.1, 0.3, 1 and 3 μM). Besides, the “cytotoxicity of inhibitor alone” value (no DRP, highest dose 60 μM) is given as “did produce significant cytotoxicity”.

Usually EC50 stands for the concentration giving half of the maximal effect.
